Laboratory results reported in patent publication US8227240B2, “Systems for screening pharmaceutical chemicals” (The Washington University, priority 2001, dated 2012).

Tests used:
[1] = system: bio-artificial tissues (F-actin network); assay: Tissue indentation device: force-time and longitudinal force-strain curves (Example 15); type: cell-based
Method: Bio-artificial tissues were generated by mixing cells and neutralized collagen, as described elsewhere (Wakatsuki et al., 2000, Biophys. J. 79:2353-2368). Briefly, cells were mixed with neutralized rat-tail collagen (Millipore Billerica, Mass.) and media containing 10% Fetal Bovine Serum (FBS). 200-250[…]1 of this solution is poured into wells as described below. The tissues are cultured in Dulbecco's modified Eagle's medium (DMEM) supplemented with 10% FBS and antibiotics (penicillin and streptomycin) in an incubator for two or three days. The bio-artificial tissue membrane was stretched using a mechanical testing device is (as detailed below). During the mechanical measurements, culture medium was switched to a HEPES-buffered DMEM, pH 7.4, and maintained at 37° C.
A chamber to hold 8 bio-artificial tissues was machined from a polycarbonate bar (25×60×10 mm) using a tabletop CNC mill (Sherline Products Inc., Vista, Calif.). The 8 square wells of 8×8 mm contained 2 horizontal stainless-steel (medical grade) bars (1 mm diameter) which centers were located 2 mm above bottom and 2 mm beside each wall and were 4 mm apart (FIG. 29A). A microscope cover-slip (No. 1 thickness, Fisher brand) sealed the bottom of wells using silicon glue (Dow chemicals) to facilitate microscopic imaging of cells and bio-artificial tissues. […]
The mechanical testing device is depicted in FIG. 29A. […] The linear actuators were controlled simultaneously by a personal computer that also recorded the signal generated by the force transducer. […]
While the force-probe indents the bio-artificial tissues vertically at a constant rate, ν (0.5 mm/sec), an isometric force transducer connected to the force probe recorded a resistance force, F(t). A time dependent change in bio-artificial tissues-membrane force in the longitudinal direction, T(t), was calculated from F(t) by a trigonometric relationship (FIG. 28). This rate of indentation was determined to achieve a minimum noise-level by the current device arrangement. […]

[2] = system: ring tissue model; assay: Contractile force developed by ring sample during tissue development (matrix remodeling and compression); type: cell-based; conditions: Cytochalasin D 2 μM
Method: The contractile force developed by the ring sample during matrix remodeling and compression can be measured by connecting the ring to the force measuring apparatus as described above within about 1-2 hours after collagen gelation. The cells begin to exert a force on the matrix after this time. Then the increase of force during tissue development (remodeling and compression) is observed over time.
Maximum force is typically reached within 15 to 20 hours. This process was also disrupted by several inhibitors as illustrated in FIGS. 18(b)-(d).

**Q.** Which results are given for `C=C1[C@@H](C)[C@H]2[C@H](Cc3ccccc3)NC(=O)[C@]23[C@H](OC(C)=O)/C=C/[C@@](C)(O)C(=O)[C@@H](C)C/C=C/[C@H]3[C@@H]1O` [CD, cytochalasin D]?
**A.** pre-force σ0A (minimum force) compared to untreated control ([1]; 90 nM CD): reduced levels; resistance force F(t) while stretching the membrane ([1]; 90 nM and 2 μM CD): less resistance force; pre-force σ0A (minimum force) compared to untreated control ([1]; 2 μM CD): reduced levels; development of force during ring tissue development [2]: completely abolished
